Ends that are not written are not given here.
How the values were obtained:
[1] = system: food intake; test: Food intake in overnight-fasted NIH/SW mice; type: in vivo; conditions: for effect on food intake: 60 min
Experimental: Female NIH/Swiss mice (8-12 weeks old) were group housed with a 12:12 hour light:dark cycle with lights on at 0600. Water and a standard pelleted mouse chow diet were available ad libitum, except as noted. Animals were fasted and housed individually starting at approximately 1500 hrs, 1 day prior to experiment. The morning of the experiment (approx. 0630 hrs), all animals were weighed and divided into experimental groups so as to give the most similar weight distribution between groups. In a typical study, n=10 for the control group and at least 5 for each treatment group. At time=0 min, all animals were given an intraperitoneal injection of vehicle or compound in a volume of 5 ml/kg and immediately given a pre-weighed amount (10-15 g) of the standard chow. […] Significant treatment effects were identified by ANOVA (p<0.05). Where a significant difference existed, test means were compared to the control mean using Dunnett's test (Prism v2.01, GraphPad Software Inc., San Diego, Calif.).

[2] = system: gastric emptying; test: Gastric emptying in HSD rats (3H-3-O-methyl-glucose gavage); type: in vivo; conditions: for effect on gastric emptying: 40 minutes
Experimental: Male HSD rats, 180-215 g, were housed with a 12:12 hour light:dark cycle and fasted for 20 hrs (overnight). […] At t=1 min, a solution of 1 mL sterile water containing 5 μCi of ^3H-3-O-methyl-glucose was gavaged by oropharyngeal tube to conscious rats. Blood samples (10 μl) were collected 40 min after gavage and assayed for counts per minute (CPM) in plasma. To eliminate pain during tail vein sampling, 2% Lidocaine (0.1 ml) was injected 3-4 cm from the end of the tail (Gedulin, Jodka et al. Gastroenterology 108: […], 1995). Effects of the test compound were expressed as percent change relative to control, which was calculated as -100*(1-(mean value test rats/mean value controls)). Relative activity was defined as significant if p<0.05 as determined by ANOVA. Where a significant difference existed, test means were compared to the control mean using Dunnett's test (Prism v2.01, GraphPad Software Inc., San Diego, Calif.).

[3] = given peripherally, dose not given

Row | Substance | effect on food intake ([1]; 200 μg/kg intraperitoneal) | effect on gastric emptying ([2]; 200 μg/kg intraperitoneal) | effect on food intake ([1]; 100 μg/kg intraperitoneal) | effect on gastric emptying ([2]; 500 μg/kg intraperitoneal) | effect on food intake ([1]; 500 μg/kg intraperitoneal) | effect on food intake (summary) [1, 3] | effect on gastric emptying (summary) [2, 3]
1 | Ac-PYY[22-36] (Ac-ASLRHYLNLVTRQRY; ends and bridges not checked; listed as Homo sapiens) | inactive | inactive | – | – | – | – | –
2 | NPY[3-36] | – | – | inactive | inactive | – | – | –
3 | Neuropeptide Y [NPY] | – | – | inactive | inactive | trend toward activity | modest decrease in food intake | completely inactive

— US8273713B2 (Amylin Pharmaceuticals, LLC, priority 2000, dated 2012)
